{"source": "patent US20250017878A1", "about": "(Chronic Airway Therapeutics Limited, priority 2021, published 2025)", "key": {"[1]": {"system": "asthmatic mice (ovalbumin-sensitized and ovalbumin-challenged)", "assay": "Airway responsiveness to methacholine (airway resistance Raw, forced oscillation) in murine model of asthma, Example 1", "format": "in vivo, Balb/cJ mice", "experimental": "The results obtained in drug-treated animals were compared with those obtained in vehicle-treated counterparts (controls) in experiments performed in close temporal relationship. […] Mice were sensitized with subcutaneous injection of 25 μg of ovalbumin adsorbed to aluminum hydroxide on protocol days 2, 9, and 16. Subsequently, mice were given 50 μL of saline solution containing 25 μg of ovalbumin intranasally, on a daily basis, from protocol days 23 through 27. A group of ovalbumin-sensitized saline-challenged mice serves as controls for systemic sensitization and respiratory challenges with ovalbumin. Prior to intranasal administrations, mice were sedated with halothane vapor. For the study of Example 1, ovalbumin-sensitized and ovalbumin-challenged mice, and ovalbumin-sensitized and saline-challenged mice will be referred to as asthmatic mice and control mice, respectively. […] To examine the effects of duration of β-adrenergic ligand therapy on the phenotype of the murine model of asthma, the experimental drugs were administered either acutely or chronically to different groups of asthmatic mice. […] These concentrations were chosen based on those producing therapeutic effects in mice in previously published studies. The non-asthmatic mice were fed normal chow. Salbutamol was delivered for 28 days at a dose of 0.5 mg/kg/day using an osmotic minipump (Alzet®, #2004, Durect Corporation, Cupertino, CA). […] Airway resistance (Raw) was measured using the forced oscillation technique. The cellular composition of bronchoalveolar lavage fluid (BALF) was also determined. […] However, it was observed that the degree of airway responsiveness and the number of eosinophils recovered in BALF were lower in non-treated asthmatic mice studied in close temporal relationship with mice receiving acute β-adrenergic antagonist treatments that in those obtained in non-treated asthmatic mice studied concomitantly with mice on chronic β-adrenergic antagonist therapy. […] The complex input impedance of the respiratory system was computed and the value of the real part of respiratory system impedance at 19.75 Hz was taken to reflect the magnitude of airway resistance (Raw). To examine the degree of airway responsiveness of each animal, the values for Raw as a function of methacholine doses were plotted. The largest value for Raw achieved in response to methacholine stimulation was referred to as […]. For mice that achieved a plateau in the methacholine dose-Raw response curve, the ED50 was calculated by linear interpolation using the GraphPad Prism4 (GraphPad Software, Inc.). Results obtained for β-adrenergic drug-treated and non-treated mice were performed using the analysis of variance for multiple groups of a Student's t-test for comparing two groups. The Bonferroni test was used to examine the statistical differences between experimental groups. The effects of acute drug treatments on baseline respiratory system mechanics were assessed using a two-tailed paired t-test. A value of P<0.05 was considered significant."}, "[2]": {"system": "patients who had a history of failing to quit smoking programs", "assay": "Success of smoking cessation versus placebo, Example 14", "format": "in vivo, human", "conditions": "patients who had failed quit smoking programs at least 5 times"}, "asthmatic mice [3]": {"system": "asthmatic mice", "assay": "Decrease in airway resistance (Raw) by period of administration, Example 8 / Table 2", "format": "in vivo", "experimental": "(§1) The periods of administration of the agents are 15 minutes, 2 days, and 28 days. […] This strongly supports the concept of combination therapy, such as with an inverse agonist and an agonist."}, "β2-adrenergic receptor [4]": {"system": "β2-adrenergic receptor", "assay": "Determination of β-adrenergic receptor density by radioligand (ICYP) binding in lung membranes of treated asthmatic mice, Example 2", "format": "in vivo", "conditions": "for Apparent KD (of radioligand ICYP): KD of ICYP binding, not of the drug", "experimental": "β2-adrenergic receptor numbers were measured in asthmatic mice as follows. […] Mice were sacrificed and lung membranes were isolated as follows. Frozen lung tissue was homogenized in an ice-cold buffer containing 0.32 M sucrose and 25 mM Tris (pH 7.4) using a polytron (Pro 200, Pro Scientific, Inc.). The homogenate was centrifuged at 1000×g for 10 min at 4° C. The resulting supernatant was centrifuged at 40,000×g for 20 min at 4° C. The pellet was suspended in an ice-cold 25 mM Tris-HCl buffer (pH 7.4) and centrifuged at 40,000×g for 20 min at 4° C. The final pellet was suspended in 200 μL of 25 mM Tris-HCl (pH 7.4); membrane protein concentration was determined by BCA protein assay kit. […] The incubation was done at 37° C. for 2 h and terminated by rapid vacuum filtration through glass fiber filters. The filters were washed three times with 250 μL of cold wash buffer (25 mM Tris-HCl, pH 7.4) and the radioactivity determined in a counter. […] Receptor densities are expressed as femtomoles of sites per milligram of protein. Bmax is determined by nonlinear regression of the saturation binding curves. […] Please note that the 15-minute and 28-day time points refer to duration of drug treatment."}, "β2-adrenergic receptor [5]": {"biological_target": "T1, β2-adrenergic receptor (Mus musculus, UniProt P18762)", "T1 sequence (P18762 whole entry)": "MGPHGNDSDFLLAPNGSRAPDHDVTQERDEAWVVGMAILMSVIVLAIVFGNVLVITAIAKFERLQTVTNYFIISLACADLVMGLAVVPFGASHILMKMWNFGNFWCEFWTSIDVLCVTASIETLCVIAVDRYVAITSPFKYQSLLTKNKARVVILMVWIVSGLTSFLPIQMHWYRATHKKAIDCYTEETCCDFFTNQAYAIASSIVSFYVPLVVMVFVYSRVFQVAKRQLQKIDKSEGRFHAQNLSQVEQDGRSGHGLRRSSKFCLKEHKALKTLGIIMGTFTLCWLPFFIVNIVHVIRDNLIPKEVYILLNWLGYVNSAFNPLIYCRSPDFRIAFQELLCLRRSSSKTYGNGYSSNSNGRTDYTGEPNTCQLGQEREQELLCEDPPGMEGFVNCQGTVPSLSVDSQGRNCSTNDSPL", "assay": "Immunohistochemistry of β2-adrenergic receptor levels in lung sections, Example 3", "format": "in vivo, mice", "design": "from tissue; host or cells: mouse lung sections", "conditions": "chronic nadolol versus untreated animals; epifluorescent microscopy", "experimental": "The mice were sacrificed and the lungs excised. Then the lungs were fixed in 4% paraformaldehyde (45 min, 0° C.). After fixation, lungs were washed in PBS (60 min) and placed in increasing concentrations of sucrose (10% sucrose/5% glycine in PBS for 30 min; 20% sucrose/10% glycine in PBS for 30 min; 30% sucrose/15% glycine in PBS for 12 h at 4° C.). Lungs were embedded in OCT and 12-μm sections cut with a Tissue-Tek II cryostat. The sections were air-dried and fixed with 4% paraformaldehyde for 15 minutes. After 3 washes in PBS, the slides were blocked with 5% milk in PBS for 1 hour, and then incubated overnight with anti-β2-adrenergic receptor antibody (1:200, Santa Cruz Biotechnology) in blocking solution. Slides were washed in PBS and incubated with secondary antibody (1:200, Cy3 goat anti-rabbit antibody, 16 h at 4° C.). […] After washing with PBS, coverslips were mounted and viewed by epifluorescent microscopy."}, "[6]": {"system": "mucous metaplasia in sensitized/challenged mice", "assay": "Mucous metaplasia in sensitized/challenged mice (photomicrographs), Example 10", "format": "in vivo", "conditions": "sensitized/challenged mice after treatment"}, "[7]": {"system": "subjects with mild asthma", "assay": "Salbutamol effectiveness after methacholine challenge in subjects with mild asthma on nadolol, Example 15", "format": "in vivo, human", "conditions": "salbutamol 2.5 mg by nebulization", "excerpt": "Salbutamol is a short-acting β2-adrenergic receptor agonist."}, "[8]": {"system": "ovalbumin-sensitized, allergen-challenged mice", "assay": "Aminophylline on acute airway effects of nadolol (methacholine-induced bronchoconstriction), Example 5", "format": "in vivo", "conditions": "nadolol 0.72 mg/kg i.p. 15 minutes prior to methacholine challenge", "method": "At time point 1 (time=−10 min) baseline airway resistance of the mice was determined. At time point 2 (time=−5 min) methacholine was infused into mice to reach their EC70."}, "[9]": {"system": "asthmatic mice (ovalbumin-sensitized and ovalbumin-challenged)", "conditions": "same mouse asthma model; Callaerts-Vegh et al. 2004; cited from earlier work"}, "cAMP accumulation": {"system": "cAMP accumulation", "assay": "cAMP accumulation, Example 16 / FIG. 16", "format": "cell-based"}, "β2-adrenergic receptor [10]": {"biological_target": "T1, β2-adrenergic receptor", "assay": "Upregulation of β2-adrenergic receptor density by period of administration, Example 8 / Table 2", "format": "in vivo, mice", "design": "from tissue", "experimental": "as §1"}, "asthmatic mice [11]": {"system": "asthmatic mice", "assay": "β-adrenergic receptor drugs at low and high doses on airway resistance, Example 7", "format": "in vivo", "experimental": "For these experiments, salbutamol was used for chronic administration at 0.5 mg/kg/day with a minipump and for acute administration at 0.15 mg/kg by i.v. bolus 15 minutes prior to challenge. […] Carvedilol was used at a high dose of 2400 ppm in chow or at a low dose of 720 ppm in chow. […] In these diagrams, Ctrl=control mice, non-asthmatic, non-drug treated; NTX=asthmatic mice, non-drug treated; AC=acute administration; 2d=chronic administration for 2 days; 28d=chronic administration for 28 days. The airway resistance (Raw) is plotted as cm H2O ml^−1 s."}, "[12]": {"conditions": "cited from earlier work"}, "β-arrestin pathway": {"system": "β-arrestin pathway", "assay": "Blockade of the β-arrestin pathway, Example 16 / FIG. 16", "format": "cell-based"}}, "data": [{"smiles": "CC(C)(C)NCC(O)COc1cccc2c1CC(O)C(O)C2", "note": "(stereo not shown) [Nadolol, nadolol]", "values": [{"measurement": "airway responsiveness to methacholine provocation (Raw), chronic treatment", "setting": "[1]; drug delivered for 28 days (chow or osmotic minipump)", "result": "produced a decrease in airway responsiveness, which was more pronounced than that caused by carvedilol treatment"}, {"measurement": "airway responsiveness to methacholine provocation (Raw), acute treatment", "setting": "[1]; single intravenous bolus 15 minutes before methacholine", "result": "enhanced the airway responsiveness of asthmatic mice"}, {"measurement": "reduction in smoking", "setting": "[2]", "result": 70, "unit": "%"}, {"measurement": "Decreased Raw", "setting": "asthmatic mice [3]; 15 minutes administration", "result": "no"}, {"measurement": "Decreased Raw", "setting": "asthmatic mice [3]; 2 days administration", "result": "yes"}, {"measurement": "Decreased Raw", "setting": "asthmatic mice [3]; 28 days administration", "result": "yes"}, {"measurement": "increase of the level of β2-adrenergic receptors over the non-treated mice", "setting": "β2-adrenergic receptor [4]; chronic administration, versus untreated methacholine-challenged asthmatic mice", "result": "nearly eightfold increase"}, {"measurement": "Apparent KD (of radioligand ICYP)", "setting": "β2-adrenergic receptor [4]; lung membranes, drug treatment 15 Minutes", "result": "(695.1 ± 286.3) pM"}, {"measurement": "Bmax (β-adrenergic receptor density)", "setting": "β2-adrenergic receptor [4]; lung membranes, drug treatment 15 Minutes, mean ± SEM, n=3-5", "result": "181.9 ± 48.28 femtomoles of sites per milligram of protein"}, {"measurement": "Apparent KD (of radioligand ICYP)", "setting": "β2-adrenergic receptor [4]; lung membranes, drug treatment 28 Days", "result": "(1591.6 ± 335.0) pM"}, {"measurement": "βmax (β-adrenergic receptor density)", "setting": "β2-adrenergic receptor [4]; lung membranes, drug treatment 28 Days, mean ± SEM, n=3-5", "result": "785.5 ± 154.8 femtomoles of sites per milligram of protein"}, {"measurement": "labeling with anti-β2-adrenergic receptor antibodies in lungs", "setting": "β2-adrenergic receptor [5]", "result": "considerably more intense"}, {"measurement": "mucous metaplasia", "setting": "[6]", "result": "nearly complete elimination of mucous metaplasia"}, {"measurement": "effect on effectiveness of salbutamol after methacholine challenge", "setting": "[7]", "result": "does not block the effectiveness of the administration of salbutamol"}, {"measurement": "baseline airway resistance", "setting": "[8]", "result": "the same baseline airway resistance as non-drug treated sensitized and allergen-challenged mice"}, {"measurement": "airway hyperresponsiveness, administered acutely", "setting": "[9]", "result": "worsens airway hyperresponsiveness"}, {"measurement": "airway hyperresponsiveness, administered chronically", "setting": "[9]", "result": "prevents airway hyperresponsiveness"}, {"measurement": "cAMP accumulation", "setting": "cAMP accumulation", "result": "not associated with cAMP accumulation"}, {"measurement": "Increased β2AR density", "setting": "β2-adrenergic receptor [10]; 15 minutes administration", "result": "no"}, {"measurement": "Increased β2AR density", "setting": "β2-adrenergic receptor [10]; 2 days administration", "result": "yes"}, {"measurement": "Increased β2AR density", "setting": "β2-adrenergic receptor [10]; 28 days administration", "result": "yes"}, {"measurement": "protection from airway hyperresponsiveness", "setting": "asthmatic mice [11]; chronic administration in chow, high and low dose", "result": "providing protection from airway hyperresponsiveness with chronic administration"}, {"measurement": "airway resistance (Raw) at 1 ppm in chow", "setting": "asthmatic mice [11]; nadolol 1 ppm in chow", "result": "identical to the untreated mice"}, {"measurement": "lipid solubility", "setting": "[12]", "result": "low lipid solubility"}, {"measurement": "block of the β-arrestin pathway", "setting": "β-arrestin pathway", "result": "acts to block the β-arrestin pathway"}]}]}
